Source: patent US20240308995A1, “O-GLYCOPROTEIN-2-ACETAMIDO-2-DEOXY-3-D-GLUCOPYRANOSIDASE INHIBITORS” (BIOGEN MA INC., priority 2018, published 2024)
Read-outs that look alike come from different tables or passages of the source.

Columns and labels:
[1] = Rat Liver Microsome Stability Assay; type: in vitro ADME; conditions: rat liver microsomes, 1 uM compound
[2] = test system: MDR1-MDCK cell monolayers; experiment: MDR1-MDCK Efflux Ratio Assay; type: in vitro ADME; conditions: MDR1-MDCK cells, 2 hr, pH 7.4
In short: (§1)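 Bidirectional (apical↔basolateral) transport across confluent MDR1-MDCK monolayers in HBSS/10 mM HEPES pH 7.4, receiver buffer with 1% BSA; 2 hr at 37° C, 5% CO2. Donor sampled at 0 and 120 min, receiver at 120 min, quantified by LC-MS/MS in triplicate. Papp, efflux ratio and percent recovery calculated.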

[3] = target: Recombinant full length human OGA enzyme (Homo sapiens (Human), UniProt O60502); experiment: OGA Enzyme Inhibition Biochemical Assay; conditions: 1 nM OGA, 100 μM 4-MUGlcNAc, pH 6.4
Sequence of Recombinant full length human OGA enzyme (O60502 whole entry): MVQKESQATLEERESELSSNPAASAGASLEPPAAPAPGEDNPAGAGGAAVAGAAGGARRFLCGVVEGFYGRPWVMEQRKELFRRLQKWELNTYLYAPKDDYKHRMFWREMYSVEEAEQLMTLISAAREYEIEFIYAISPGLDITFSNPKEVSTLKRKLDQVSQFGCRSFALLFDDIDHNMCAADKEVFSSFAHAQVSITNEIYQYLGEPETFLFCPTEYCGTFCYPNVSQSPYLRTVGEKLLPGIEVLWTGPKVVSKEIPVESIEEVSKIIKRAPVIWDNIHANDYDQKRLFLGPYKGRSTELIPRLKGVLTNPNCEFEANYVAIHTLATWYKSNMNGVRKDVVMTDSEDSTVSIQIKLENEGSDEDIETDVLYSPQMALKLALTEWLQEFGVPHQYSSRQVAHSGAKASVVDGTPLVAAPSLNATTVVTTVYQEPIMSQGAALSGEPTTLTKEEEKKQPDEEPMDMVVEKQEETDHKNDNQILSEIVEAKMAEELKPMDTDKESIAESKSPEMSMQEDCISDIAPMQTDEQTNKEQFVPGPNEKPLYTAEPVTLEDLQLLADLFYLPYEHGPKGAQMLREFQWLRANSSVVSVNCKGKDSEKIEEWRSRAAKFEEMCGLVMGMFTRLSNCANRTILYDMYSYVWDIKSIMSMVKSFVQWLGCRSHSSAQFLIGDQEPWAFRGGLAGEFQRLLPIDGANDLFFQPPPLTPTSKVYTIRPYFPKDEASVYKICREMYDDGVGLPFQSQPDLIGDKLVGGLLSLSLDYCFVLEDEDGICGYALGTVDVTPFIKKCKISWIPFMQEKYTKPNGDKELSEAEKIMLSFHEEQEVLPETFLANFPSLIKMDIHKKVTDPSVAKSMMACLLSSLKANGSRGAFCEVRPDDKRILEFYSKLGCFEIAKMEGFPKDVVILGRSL
In short: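 Full-length recombinant human OGA with fluorogenic 4-MUGlcNAc in McIlvaine buffer pH 6.4, 0.01% BSA; 90 min at room temperature, glycine pH 10 quench, fluorescence Ex 355/Em 460 nm. 10-point, 4-fold dilution from 20 μM; 4-parameter variable-slope fit.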

[4] = target: OGA (S400 O-GLCNAC), HEK-293T cells transfected with Tau-V5 (Homo sapiens (Human), UniProt O60502); experiment: Cellular OGA-Tau MSD Assay; type: cell-based; conditions: HEK-293T cells, Tau-S400-GlcNAc MSD readout
Sequence of OGA (S400 O-GLCNAC), HEK-293T cells transfected with Tau-V5 (O60502 whole entry): as above
In short: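 HEK-293T cells transfected with OGA and Tau-V5 plasmids were treated overnight at 37° C with a 10-point, 3-fold titration from 1 uM. Lysates went onto V5-antibody MSD plates to capture Tau, probed with a Tau O-GlcNAc antibody and read by electrochemiluminescence; IC50 from a 4-parameter fit.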

P-gp (MDR1) = experiment: MDR1-MDCK Efflux Ratio Assay; type: in vitro ADME; conditions: dog, read-out: MDR1-MDCK Efflux Ratio (B-A/A-B)
In short: as §1

[5] = MDCK-MDR1, pH 7.4, MDR1-MDCK cells, 2 hr, pH 7.4

| Molecule | RLM % Qh (%) [1] [%] | MDR1-MDCK Efflux Ratio (B-A/A-B) [2] | IC50 [3] [nM] | IC50 [4] [nM] | efflux ratio at 2 h (P-gp (MDR1); [5]) | efflux ratio at 2 h (P-gp (MDR1); MDCK-MDR1, pH 7.4, repeated assay, value marked with asterisk (*)) |
| --- | --- | --- | --- | --- | --- | --- |
| N-(4-fluoro-5-(((2S,4R)-4-((6-methoxypyrimidin-4-yl-4,5,6-^13C3)oxy)-2 methylpyrrolidin-1-yl)methyl)thiazol-2-yl)acetamide [Example 1-153] | 39 | 2.3 | < 1 | 1 |  |  |
| CO[C@H]1C[C@@H](Oc2cc(O[C@@H]3C[C@H](C)N(Cc4cnc(NC(C)=O)s4)C3)ncn2)C1 [Example 1-123, N-(5-(((2S,4R)-4-((6-((1s,3S)-3-methoxycyclobutoxy)pyrimidin-4-yl)oxy)-2-methylpyrrolidin-1-yl)methyl)thiazol-2-yl)acetamide] | 55 |  | 1.1 | 5 | 5.7 |  |
| CC(=O)Nc1ncc(CN2C[C@H](Oc3ccc(F)cn3)C[C@@H]2C)s1 [Example 1-11, N-(5-(((2S,4R)-4-((5-fluoropyridin-2-yl)oxy)-2-methylpyrrolidin-1-yl)methyl)thiazol-2-yl)acetamide] | 73 |  | < 1 | 3 | 1.1 | 1.9 |
| CC(=O)Nc1nc(F)c(CN2C[C@H](Oc3cc(O)ncn3)C[C@@H]2C)s1 [Example 1-109, N-(4-fluoro-5-(((2S,4R)-4-((6-hydroxypyrimidin-4-yl)oxy)-2-methylpyrrolidin-1-yl)methyl)thiazol-2-yl)acetamide] | 16 |  | < 1 | 8 | 12.7 |  |
| COCCOc1cc(O[C@@H]2C[C@H](C)N(Cc3cnc(NC(C)=O)s3)C2)ncn1 [Example 1-122, N-(5-(((2S,4R)-4-((6-(2-methoxyethoxy)pyrimidin-4-yl)oxy)-2-methylpyrrolidin-1-yl)methyl)thiazol-2-yl)acetamide] | 32 |  | < 1 | 3 | 2.1 |  |
| COc1nccc(O[C@@H]2C[C@H](C)N(Cc3sc(NC(C)=O)nc3F)C2)n1 [Example 1-92, N-(4-fluoro-5-(((2S,4R)-4-((2-methoxypyrimidin-4-yl)oxy)-2-methylpyrrolidin-1-yl)methyl)thiazol-2-yl)acetamide] | 54 |  | < 1 | 1 | 10 |  |
| CC(=O)Nc1nc(F)c(CN2C[C@H](Oc3ccc(F)nc3)C[C@@H]2C)s1 [Example 1-85, N-(4-fluoro-5-(((2S,4R)-4-((6-fluoropyridin-3-yl)oxy)-2-methylpyrrolidin-1-yl)methyl)thiazol-2-yl)acetamide] | 60 |  | < 1 | 2 | 3.8 |  |
| CC(=O)Nc1ncc(CN2C[C@H](Oc3cc(OC(C)C)ncn3)C[C@@H]2C)s1 [Example 1-127, N-(5-(((2S,4R)-4-((6-isopropoxypyrimidin-4-yl)oxy)-2-methylpyrrolidin-1-yl)methyl)thiazol-2-yl)acetamide] | 62 |  | 1.9 | 8 | 3.1 |  |
| CC(=O)Nc1ncc(CN2CC[C@@H](Oc3cc(C)nc(C)c3)C2)s1 [Example 1-59, (R)—N-(5-((3-((2,6-dimethylpyridin-4-yl)oxy)pyrrolidin-1-yl)methyl)thiazol-2-yl)acetamide] | 55 |  | 1.9 | 8 | 22.2 |  |
| CC(=O)Nc1ncc(CN2C[C@H](Oc3ccc(F)cn3)C[C@H]2C)s1 [Example 1-10, N-(5-(((2R,4R)-4-((5-fluoropyridin-2-yl)oxy)-2-methylpyrrolidin-1-yl)methyl)thiazol-2-yl)acetamide] | 76 |  | 28 | 115 | 1.9 |  |
| COc1cc(O[C@@H]2C[C@H](C)N(Cc3cnc(NC(C)=O)s3)C2)ncn1 [Example 1-1, N-(5-(((2S,4R)-4-((6-methoxypyrimidin-4-yl)oxy)-2-methylpyrrolidin-1-yl)methyl)thiazol-2-yl)acetamide] | 31 |  | < 1 | 2 | 4.8 |  |
| CC(=O)Nc1ncc(CN2C[C@@H](Oc3cc(C)nc(C)c3)C[C@H]2C)s1 [Example 1-63, N-(5-(((2R,4S)-4-((2,6-dimethylpyridin-4-yl)oxy)-2-methylpyrrolidin-1-yl)methyl)thiazol-2-yl)acetamide] | 16 |  | 420 | > 1000 | 45.3 |  |
| [2H]c1nc(NC(C)=O)sc1CN1C[C@H](Oc2cc(OC)ncn2)C[C@@H]1C (single isomer, unassigned) [Example 1-162] | 35 |  | < 1 | 19 | 6.2 |  |
| [2H]C([2H])([2H])Oc1cc(O[C@@H]2C[C@H](C)N(Cc3cnc(NC(C)=O)s3)C2)ncn1 (single isomer, unassigned) [Example 1-154] | 27 |  | < 1 | 2 | 4.3 |  |
| COc1cc(O[C@@H]2C[C@H](C)N(Cc3sc(NC(C)=O)nc3F)C2)ncc1F [Example 1-118, N-(4-fluoro-5-(((2S,4R)-4-((5-fluoro-4-methoxypyridin-2-yl)oxy)-2-methylpyrrolidin-1-yl)methyl)thiazol-2-yl)acetamide] | 85 |  | < 1 | 1 | 3.5 |  |
| CC(=O)Nc1ncc(CN2C[C@H](Oc3cc(OC4COC4)ncn3)C[C@@H]2C)s1 [Example 1-124, N-(5-(((2S,4R)-2-methyl-4-((6-(oxetan-3-yloxy)pyrimidin-4-yl)oxy)pyrrolidin-1-yl)methyl)thiazol-2-yl)acetamide] | 16 |  | < 1 | 3 | 11.2 |  |
| CC(=O)Nc1ncc(CN2C[C@H](Oc3cc(C)nc(C)c3)C[C@H]2C)s1 [Example 1-61, N-(5-(((2R,4R)-4-((2,6-dimethylpyridin-4-yl)oxy)-2-methylpyrrolidin-1-yl)methyl)thiazol-2-yl)acetamide] | 31 |  | 7 | 39 | 45.2 |  |
| COc1cc(O[C@@H]2CCCN(Cc3cnc(NC(C)=O)s3)C2)ncn1 [Example 1-42, (R)—N-(5-((3-((6-methoxypyrimidin-4-yl)oxy)piperidin-1-yl)methyl)thiazol-2-yl)acetamide] | 61 |  | 39 | 81 | 3.9 |  |
| CC(=O)Nc1nc(F)c(CN2C[C@H](Oc3cc(C)nc(C)c3)C[C@@H]2C)s1 [Example 1-50, N-(5-(((2S,4R)-4-((2,6-dimethylpyridin-4-yl)oxy)-2-methylpyrrolidin-1-yl)methyl)-4-fluorothiazol-2-yl)acetamide] | 47 |  | < 1 | 1 | 22.4 |  |
| CC(=O)Nc1nc(F)c(CN2C[C@H](Oc3ccnc(F)c3)C[C@@H]2C)s1 [Example 1-97, N-(4-fluoro-5-(((2S,4R)-4-((2-fluoropyridin-4-yl)oxy)-2-methylpyrrolidin-1-yl)methyl)thiazol-2-yl)acetamide] | 52 |  | < 1 | 3 | 3.7 |  |
